From paper PMC8597046, “Use of Mixture Dosing and Nonlinear Mixed Effect Modeling of Eight Environmental Contaminants in Rabbits to Improve Extrapolation Value of Toxicokinetic Data” (Environmental Health Perspectives, 2021)

Assays:
[1] = Chronic exposure: daily oral mixture for 17 wk, steady-state serum concentrations
Protocol: The objective of this preliminary experiment was to check the ability of our approach to determine the loading and maintenance doses of the eight compounds to be administered simultaneously by oral route to reproduce in female rabbits targeted serum concentrations. The experiment was carried out on thirty-two 2-wk old female New Zealand white rabbits (INRA 1777 line) randomly allocated to a treatment and control groups of 16 rabbits weighing 309±45g and 298±62g , respectively. The treated rabbits were orally administrated a mixture of the eight compounds at a dosage corresponding to the sum of the loading and daily maintenance doses followed by daily administrations of the maintenance dose for 17 wk (see the “Estimation of the doses” section). The control group was orally administrated the vehicle for the same duration.
The volume of the maintenance dosing solution ( 1mL/kg ) was weekly adjusted to the mean BW estimated from the known pattern of growth of the INRA 1777 rabbit line. Oral dosing and antemortem blood sampling were performed as previously described.
Blood samples were left to clot for about 20–30 min at ambient temperature and centrifuged for 20 min at 3,000×g at 25°C. The separated serum was stored in glass tubes at −20°C until assayed.

[2] = TK assay, intravenous mixture dosing: serum concentrations and noncompartmental analysis (sparse data)
Protocol: The experiment was carried out on thirty 10-wk old female New Zealand white rabbits (INRA 1777 line) weighing 2.37±0.14kg . […] Blood samples were taken at the designated time points post IV and oral administration: 15 min, 30 min, 1 h, 2 h, 4 h, 8 h, 12 h, 24 h, 3 d, 7 d, and 28 d from groups of 3 or 6 rabbits at each sampling time. Each rabbit was sampled 3 times and 3 rabbits were sampled at each sampling time, except at 30 min post administration, when 6 samples were collected to provide a sufficient blood volume for assaying the compounds. The doses and assay time points were selected to allow the calculation of TK parameters (Table 1) based on preliminary TK data. Residual concentrations of the compounds, and their possible evolution over time, were determined by sampling six entirely untreated rabbits during the TK study on the day of drug administrations, then 14 d and 28 d later.
The volume administered was adjusted to the animal’s body weight (BW) recorded the day before.
Intravenous administrations were performed via an indwelling catheter (22G Terumo, 0.9×25mm ) just after its insertion into an ear vein. […] For oral administrations, the mixture of all compounds ( 4mL/kg ) was deposited directly in the mouth of rabbits using a catheter (22G BD Insyte 22G, 0.9×25mm ). Prior to the study, the rabbits had been trained to gradually swallow water and then corn oil.
Blood samples were collected from the auricular artery using a 20 G needle ( 0.9×25mm ) and a dry tube. The first two blood samples were 8–10mL in volume, whereas a large volume (about 20mL ) was obtained antemortem immediately after electrical stunning (95LX rabbit stunner; Burdis), followed by exsanguination.
Serum concentration-time profiles of the different compounds were first analyzed using a noncompartmental approach (NCA) involving a sparse data option. Sparse data methodology consists of calculating TK parameters based on the mean profile of all the subjects in the dataset and is appropriate when a rich data series cannot be obtained, as in the present experiment ([FDA 1999]). The area under the concentration time curve ( AUC0−tlast ) and the area under the first moment curve ( AUMC0−tlast ) from dosing time ( t=0 ) to the time of the last measurable concentration were calculated using the linear trapezoidal rule after IV and oral dosing. The area under the serum concentration time curve from dosing time to infinity ( AUC0−inf ) was obtained by adding to AUC0−tlast the area extrapolated from the time of the last measurable concentration to infinity by dividing the last quantifiable serum concentration by the slope of the terminal phase ( λZ ), as estimated by linear regression using the best fit option of Phoenix®.
The clearance (CL) and apparent clearance (CL_F) were respectively estimated after IV and oral administrations by dividing the administered dose by the AUC0−inf calculated for each analyte.
The terminal half-life (HL) was estimated with Equation 1: (1) HL=0.69315/λZ where λz is the slope of the terminal phase.
The mean residence time (MRT) was estimated using Equation 3: (3) MRT=AUMCiv0−tlast /AUCiv0−tlast , where AUCMiv0−tlast and AUCiv0−tlast are the values of AUMC0−tlast and AUC0−tlast obtained after IV dosing.
The steady-state volume of distribution ( VSS ) was estimated using Equation 4: (4) VSS=CL×MRT, with CL and MRT as defined above.

[3] = Estimation of loading and daily maintenance doses and NLME model simulations; set-up: species or system female rabbits; settings: oral, DEHP dose for MEHP in serum
Protocol: The ultimate goal of this TK investigation was to compute a dosage regimen that allowed targeted steady-state serum concentrations to be attained rapidly for a planned TK/TD trial on the reprotoxic effect of a mixture of environmental contaminants in female rabbits. […] With that in mind, the loading and the daily maintenance doses of each compound were evaluated using Equations 12 and 13, respectively.
This risk was also the reason why the NLME model was employed to simulate the time development of the amounts of compounds in the central and peripheral compartments following administration of the daily maintenance dose of each compound over the same duration.
The loading and maintenance doses computed to ensure a nominal CSS of 1 ng/mL were scaled to determine the doses to be administrated by oral route to female rabbits to maintain the targeted CSS .

[4] = serum, IV mixture dosing, NCA, n=12
[5] = serum, IV mixture dosing, NCA, n=12, doses in Table 2 r3, BPSG after BPS dosing
[6] = terminal, IV mixture dosing, NCA, n=12
[7] = female, New Zealand white (INRA 1777 line), rabbit, in vivo, iv
[8] = female, New Zealand white, rabbit, in vivo, iv, Serum concentration

In the case of `CCCCC(CC)COC(=O)c1ccccc1C(=O)O` (stereo not shown) [MEHP, mono(2-ethylhexyl)phthalate], the “Observed CSS” value ([1]; serum, mean±SD, n=16, after 17 weeks of oral mixture, MEHP after DEHP dosing) is reported as 51±28 (MEHP) ng/mL, the CL ([2]; IV mixture dosing, NCA, n=12) is reported as 7.15 mL/min/kg and the MRT ([2]; IV mixture dosing, NCA, n=12) is reported as 0.679 days. For the same compound, the VSS ([2]; IV mixture dosing, NCA, n=12) was 7.00 L/kg, the VZ ([2]; IV mixture dosing, NCA, n=12) was 7.85 L/kg and the Serum concentration ([2]; IV, rabbit 1, 0.30 h) was 11380 nM. The Serum concentration ([2]; IV, rabbit 1, 4.38 h) was 72 nM, the Serum concentration ([2]; IV, rabbit 1, 24.03 h) was less than 18 nM and the Serum concentration ([2]; IV, rabbit 2, 0.28 h) was 14440 nM. The Serum concentration ([2]; IV, rabbit 2, 4.05 h) was 39 nM, the Serum concentration ([2]; IV, rabbit 3, 0.35 h) was 3040 nM and the Serum concentration ([2]; IV, rabbit 3, 4.05 h) was 59 nM. The Serum concentration ([2]; IV, rabbit 4, 0.62 h) was 4130 nM, the Serum concentration ([2]; IV, rabbit 4, 8.33 h) was 27.5 nM and the Serum concentration ([2]; IV, rabbit 4, 72.00 h) was less than 18 nM. For the same compound, the Serum concentration ([2]; IV, rabbit 5, 0.75 h) was 3760 nM, the Serum concentration ([2]; IV, rabbit 5, 8.62 h) was 42 nM and the Serum concentration ([2]; IV, rabbit 5, 72.03 h) was less than 18 nM. It also gave a Serum concentration ([2]; IV, rabbit 6, 0.57 h) of 7060 nM, a Serum concentration ([2]; IV, rabbit 6, 7.98 h) of 21 nM and a Serum concentration ([2]; IV, rabbit 6, 71.97 h) of 36 nM. It also gave a Serum concentration ([2]; IV, rabbit 7, 1.13 h) of 1210 nM, a Serum concentration ([2]; IV, rabbit 7, 11.98 h) of less than 18 nM and a Serum concentration ([2]; IV, rabbit 8, 1.12 h) of 820 nM. The Serum concentration ([2]; IV, rabbit 8, 12.02 h) was less than 18 nM, the Serum concentration ([2]; IV, rabbit 9, 1.03 h) was 720 nM and the Serum concentration ([2]; IV, rabbit 9, 11.97 h) was less than 18 nM. The Serum concentration ([2]; IV, rabbit 11, 2.08 h) was 480 nM, the Serum concentration ([2]; IV, rabbit 12, 2.08 h) was 450 nM and the “AUC0−inf” value [2, 4] was 9.73 µM·h. For the same compound, the Cmax [2, 5] was 14400 nM and the half-life [2, 6] was 0.529 days.

In the case of `O=S(=O)(O)C(F)(F)C(F)(F)C(F)(F)C(F)(F)C(F)(F)C(F)(F)C(F)(F)C(F)(F)F` [nPFOS, linear isomer of perfluorooctane sulfonate], the Daily maintenance dose ([3]; to maintain serum concentration of 1 ng/mL, daily CL×Css/F) is reported as 0.0077 µg/kg, the Loading dose ([3]; to rapidly attain serum concentration of 1 ng/mL, Vss×Css/F) is reported as 0.37 µg/kg and the CL ([2]; IV mixture dosing, NCA, n=12) is reported as 0.00577 mL/min/kg. For the same compound, the MRT ([2]; IV mixture dosing, NCA, n=12) was 40.5 days, the VSS ([2]; IV mixture dosing, NCA, n=12) was 0.336 L/kg and the VZ ([2]; IV mixture dosing, NCA, n=12) was 0.353 L/kg. For the same compound, the Serum concentration ([2]; IV, rabbit 1, 0.30 h) was 320 nM, the Serum concentration ([2]; IV, rabbit 1, 4.38 h) was 280 nM and the Serum concentration ([2]; IV, rabbit 1, 24.03 h) was 260 nM. For the same compound, the Serum concentration ([2]; IV, rabbit 2, 0.28 h) was 430 nM, the Serum concentration ([2]; IV, rabbit 2, 4.05 h) was 280 nM and the Serum concentration ([2]; IV, rabbit 3, 0.35 h) was 380 nM. The Serum concentration ([2]; IV, rabbit 3, 4.05 h) was 370 nM, the Serum concentration ([2]; IV, rabbit 4, 0.62 h) was 350 nM and the Serum concentration ([2]; IV, rabbit 4, 72.00 h) was 290 nM. The Serum concentration ([2]; IV, rabbit 5, 0.75 h) was 380 nM, the Serum concentration ([2]; IV, rabbit 5, 72.03 h) was 310 nM and the Serum concentration ([2]; IV, rabbit 6, 0.57 h) was 360 nM. For the same compound, the Serum concentration ([2]; IV, rabbit 6, 71.97 h) was 330 nM, the Serum concentration ([2]; IV, rabbit 7, 11.98 h) was 290 nM and the Serum concentration ([2]; IV, rabbit 7, 168.00 h) was 270 nM. It also gave a Serum concentration ([2]; IV, rabbit 8, 12.02 h) of 240 nM, a Serum concentration ([2]; IV, rabbit 8, 167.92 h) of 230 nM and a Serum concentration ([2]; IV, rabbit 9, 11.97 h) of 310 nM. It also gave a Serum concentration ([2]; IV, rabbit 9, 168.00 h) of 280 nM, a Serum concentration ([2]; IV, rabbit 10, 671.96 h) of 150 nM and a Serum concentration ([2]; IV, rabbit 11, 672.00 h) of 160 nM. For the same compound, the Serum concentration ([2]; IV, rabbit 12, 671.83 h) was 190 nM, the “AUC0−inf” value [2, 4] was 330 µM·h and the Cmax [2, 5] was 427 nM. The half-life [2, 6] was 29.5 days.

For `Clc1c(Cl)c(Cl)c(Cl)c(Cl)c1Cl` [HCB, hexachlorobenzene], the concentration at 17 wk ([1]; female, New Zealand white (INRA 1777 line), rabbit, in vivo, po) was 2.9 ± 1.5 ng/mL, the AUC(0-inf) [2, 7] was 4.52 µM·h and the Cmax [2, 7] was 19 nM. The MRT [2, 7] was 23 days, the clearance [2, 7] was 0.85 mL/min/kg and the half-life [2, 7] was 17.2 days. For the same compound, the Vd ([2]; female, New Zealand white (INRA 1777 line), rabbit, in vivo, iv, VSS) was 28.1 L/kg, the Vd ([2]; female, New Zealand white (INRA 1777 line), rabbit, in vivo, iv, VZ) was 30.5 L/kg and the Serum concentration ([2]; female, New Zealand white, rabbit, in vivo, iv, 24 h) was 7.1 nM. It also gave a Serum concentration ([2]; female, New Zealand white, rabbit, in vivo, iv, 168 h) of 6.4 nM, a concentration at 0.6 h [2, 8] of 11 nM and a concentration at 0.67 h [2, 8] of 19 nM. The concentration at 0.77 h [2, 8] was 15 nM, the concentration at 24 h [2, 8] was 8.2 nM and the concentration at 24.03 h [2, 8] was 6.1 nM. For the same compound, the concentration at 71.97 h [2, 8] was 4.2 nM, the concentration at 72 h [2, 8] was 5.8 nM and the concentration at 72.03 h [2, 8] was 6.5 nM. It also gave a concentration at 167.92 h [2, 8] of 4.1 nM, a concentration at 168 h [2, 8] of 5.2 nM and a concentration at 671.83 h [2, 8] of 2.7 nM. For the same compound, the concentration at 671.96 h [2, 8] was 2.3 nM.
